In publication PMC5218480 (PLoS ONE, 2017):

Tested on: MV-4-11 cells
Experiment: Gene expression microarray analysis (Affymetrix PrimeView) and GSEA
Format: cell-based, human
Design: RFU PODN (11730768_x_at) / Fold change /veh PODN (11730768_x_at) / RFU LINC00158 (11744669_a_at) / Fold change /veh LINC00158 (11744669_a_at) / RFU DUSP10 (11751237_a_at) / Fold change /veh DUSP10 (11751237_a_at) / RFU ID3 (11757404_x_at) / Fold change /veh ID3 (11757404_x_at) / RFU PLEKHG5 (11737974_s_at) / Fold change /veh PLEKHG5 (11737974_s_at) / RFU LRRC4B (11730491_at) / Fold change /veh LRRC4B (11730491_at) / RFU GIMAP4 (11747438_a_at) / Fold change /veh GIMAP4 (11747438_a_at) / RFU KRT8 (11758183_x_at) / Fold change /veh KRT8 (11758183_x_at) / RFU CNN1 (11734310_a_at) / Fold change /veh CNN1 (11734310_a_at) / RFU VPS37D (11726825_at) / Fold change /veh VPS37D (11726825_at) / RFU C10orf10 (11716522_x_at) / Fold change /veh C10orf10 (11716522_x_at) / RFU KIR2DL2 /// KIR2DL4 /// KIR2DL5A /// KIR2DL5B /// KIR2DS1 /// KIR2DS2 /// KIR2DS3 /// KIR2DS4 /// KIR3DL3 /// KIR3DL3 /// KIR3DS1 (11738374_at) / Fold change /veh KIR2DL2 /// KIR2DL4 /// KIR2DL5A /// KIR2DL5B /// KIR2DS1 /// KIR2DS2 /// KIR2DS3 /// KIR2DS4 /// KIR3DL3 /// KIR3DL3 /// KIR3DS1 (11738374_at) / RFU C1QL1 (11718748_at) / Fold change /veh C1QL1 (11718748_at) / RFU TMPRSS4 (11747572_a_at) / Fold change /veh TMPRSS4 (11747572_a_at) / RFU HAMP (11756126_x_at) / Fold change /veh HAMP (11756126_x_at) / RFU RNFT2 (11725882_a_at) / Fold change /veh RNFT2 (11725882_a_at) / RFU NR4A2 (11747474_a_at) / Fold change /veh NR4A2 (11747474_a_at) / RFU ABCC12 (11746883_a_at) / Fold change /veh ABCC12 (11746883_a_at) / RFU TMEM136 (11760407_x_at) / Fold change /veh TMEM136 (11760407_x_at) / RFU CLDN22 /// WWC2 (11732394_at) / Fold change /veh CLDN22 /// WWC2 (11732394_at) / RFU HLA-DPB1 (11760878_x_at) / Fold change /veh HLA-DPB1 (11760878_x_at) / RFU SPINT1 (11716480_a_at) / Fold change /veh SPINT1 (11716480_a_at) / RFU GAP43 (11754022_s_at) / Fold change /veh GAP43 (11754022_s_at) / RFU A4GNT (11735810_at) / Fold change /veh A4GNT (11735810_at) / RFU PRB3 (11715151_x_at) / Fold change /veh PRB3 (11715151_x_at) / RFU TUBB4B (11761932_at) / Fold change /veh TUBB4B (11761932_at) / RFU CAPN14 (11732068_a_at) / Fold change /veh CAPN14 (11732068_a_at) / RFU TMCC2 (11721928_a_at) / Fold change /veh TMCC2 (11721928_a_at) / RFU IRGQ (11745062_a_at) / Fold change /veh IRGQ (11745062_a_at) / RFU FAM174B (11720279_a_at) / Fold change /veh FAM174B (11720279_a_at) / RFU TMPRSS4 (11748680_a_at) / Fold change /veh TMPRSS4 (11748680_a_at) / RFU FAM212B (11763350_a_at) / Fold change /veh FAM212B (11763350_a_at) / RFU PLEKHG5 (11743358_a_at) / Fold change /veh PLEKHG5 (11743358_a_at) / RFU ZSCAN30 (11745921_a_at) / Fold change /veh ZSCAN30 (11745921_a_at) / RFU CMKLR1 (11741424_a_at) / Fold change /veh CMKLR1 (11741424_a_at) / RFU LOC101060620 /// MAPK8IP1 (11723275_at) / Fold change /veh LOC101060620 /// MAPK8IP1 (11723275_at) / RFU SPTSSB (11747773_x_at) / Fold change /veh SPTSSB (11747773_x_at) / RFU PRSS12 (11739890_at) / Fold change /veh PRSS12 (11739890_at) / RFU BIN1 (11741810_x_at) / Fold change /veh BIN1 (11741810_x_at) / RFU WNT11 (11732464_a_at) / Fold change /veh WNT11 (11732464_a_at) / RFU C10orf10 (11716521_a_at) / Fold change /veh C10orf10 (11716521_a_at) / RFU C5orf56 (11738089_at) / Fold change /veh C5orf56 (11738089_at) / RFU CYB561 (11721691_x_at) / Fold change /veh CYB561 (11721691_x_at) / RFU ANKRD19P (11752326_a_at) / Fold change /veh ANKRD19P (11752326_a_at) / RFU OR2T12 /// OR2T33 /// OR2T8 (11738714_s_at) / Fold change /veh OR2T12 /// OR2T33 /// OR2T8 (11738714_s_at) / RFU VCAN (11748164_a_at) / Fold change /veh VCAN (11748164_a_at) / RFU JSRP1 (11732532_at) / Fold change /veh JSRP1 (11732532_at) / RFU KRTAP10-11 (11738290_x_at) / Fold change /veh KRTAP10-11 (11738290_x_at) / RFU MYO3A (11730013_a_at) / Fold change /veh MYO3A (11730013_a_at) / RFU EBF3 (11725865_a_at) / Fold change /veh EBF3 (11725865_a_at) / RFU CAMK2N1 (11719241_x_at) / Fold change /veh CAMK2N1 (11719241_x_at) / RFU C5orf56 (11738088_a_at) / Fold change /veh C5orf56 (11738088_a_at) / RFU OLFML3 (11715873_a_at) / Fold change /veh OLFML3 (11715873_a_at) / RFU LOC100653217 /// NTM (11731650_a_at) / Fold change /veh LOC100653217 /// NTM (11731650_a_at) / RFU MAPK11 (11762145_a_at) / Fold change /veh MAPK11 (11762145_a_at) / RFU FIZ1 (11724087_x_at) / Fold change /veh FIZ1 (11724087_x_at) / RFU OASL (11726364_x_at) / Fold change /veh OASL (11726364_x_at) / RFU SOX15 (11748057_x_at) / Fold change /veh SOX15 (11748057_x_at) / RFU CD79A (11719716_a_at) / Fold change /veh CD79A (11719716_a_at) / RFU HIST1H1D (11736915_at) / Fold change /veh HIST1H1D (11736915_at) / RFU CASKIN2 (11723855_a_at) / Fold change /veh CASKIN2 (11723855_a_at) / RFU LOC730098 (11760151_x_at) / Fold change /veh LOC730098 (11760151_x_at) / RFU OR4N2 (11742367_at) / Fold change /veh OR4N2 (11742367_at) / RFU PRRT2 (11749266_a_at) / Fold change /veh PRRT2 (11749266_a_at) / RFU SNX32 (11753110_a_at) / Fold change /veh SNX32 (11753110_a_at) / RFU CDHR5 (11726645_a_at) / Fold change /veh CDHR5 (11726645_a_at) / RFU RCAN1 (11760418_a_at) / Fold change /veh RCAN1 (11760418_a_at) / RFU FAM167A (11723789_a_at) / Fold change /veh FAM167A (11723789_a_at) / RFU FAM26E (11764081_at) / Fold change /veh FAM26E (11764081_at) / RFU ISYNA1 (11749810_s_at) / Fold change /veh ISYNA1 (11749810_s_at) / RFU ACY1 (11761880_at) / Fold change /veh ACY1 (11761880_at) / RFU 11764098_at / Fold change /veh 11764098_at / RFU SAMD14 (11745864_x_at) / Fold change /veh SAMD14 (11745864_x_at) / RFU NPB (11741838_a_at) / Fold change /veh NPB (11741838_a_at) / RFU TMPRSS6 (11731388_a_at) / Fold change /veh TMPRSS6 (11731388_a_at) / RFU KRTAP10-2 (11738614_at) / Fold change /veh KRTAP10-2 (11738614_at) / RFU ARHGAP8 /// PRR5-ARHGAP8 (11727945_x_at) / Fold change /veh ARHGAP8 /// PRR5-ARHGAP8 (11727945_x_at) / RFU KRTAP5-7 /// NADSYN1 (11734609_at) / Fold change /veh KRTAP5-7 /// NADSYN1 (11734609_at) / RFU RASL12 (11751679_a_at) / Fold change /veh RASL12 (11751679_a_at) / RFU CDKN2B (11736163_a_at) / Fold change /veh CDKN2B (11736163_a_at) / RFU PRF1 (11729649_at) / Fold change /veh PRF1 (11729649_at) / RFU, ZNF638 /// ZNF638-IT1 / Fold change vs veh, ZNF638 /// ZNF638-IT1 / RFU, PANK3 / Fold change vs veh, PANK3 / RFU, SH3YL1 / Fold change vs veh, SH3YL1 / RFU, ZEB2 / Fold change vs veh, ZEB2 / RFU, NRIP1 / Fold change vs veh, NRIP1 / RFU, PTTG1IP / Fold change vs veh, PTTG1IP / RFU, CAPN2 / Fold change vs veh, CAPN2 / RFU, MED14 / Fold change vs veh, MED14 / RFU, SNORA58 / Fold change vs veh, SNORA58 / RFU, C1orf63 / Fold change vs veh, C1orf63 / RFU, LRRFIP1 / Fold change vs veh, LRRFIP1 / RFU, NDUFAF7 / Fold change vs veh, NDUFAF7 / RFU, SLC12A2 / Fold change vs veh, SLC12A2 / RFU, IBTK / Fold change vs veh, IBTK / RFU, ESF1 / Fold change vs veh, ESF1 / Fold change vs veh, TMEM50B / RFU, TAOK1 / Fold change vs veh, TAOK1 / RFU, ACBD3 / Fold change vs veh, ACBD3 / RFU, TMA16 / Fold change vs veh, TMA16 / RFU, RWDD3 / Fold change vs veh, RWDD3 / RFU, BCAT1 / Fold change vs veh, BCAT1 / RFU, EDEM3 / Fold change vs veh, EDEM3 / RFU, TMEM33 / Fold change vs veh, TMEM33 / RFU, WDR75 / Fold change vs veh, WDR75 / RFU, AHCTF1 / Fold change vs veh, AHCTF1 / RFU, TFRC / Fold change vs veh, TFRC / RFU, ZDHHC17 / Fold change vs veh, ZDHHC17 / RFU, NOM1 / Fold change vs veh, NOM1 / RFU, ARL8B / Fold change vs veh, ARL8B / RFU, ZBTB11 / Fold change vs veh, ZBTB11 / RFU, TAMM41 / Fold change vs veh, TAMM41 / RFU, KIAA1704 /// LOC100996395 / Fold change vs veh, KIAA1704 /// LOC100996395 / RFU, ING1 / Fold change vs veh, ING1 / RFU, TRMT61B / Fold change vs veh, TRMT61B / RFU, FUBP3 / Fold change vs veh, FUBP3 / RFU, TP53 / Fold change vs veh, TP53 / RFU, TNKS2 / Fold change vs veh, TNKS2 / RFU, ZFP14 / Fold change vs veh, ZFP14 / RFU, ACTR2 / Fold change vs veh, ACTR2 / RFU, PPP3R1 / Fold change vs veh, PPP3R1 / RFU, PIK3R1 / Fold change vs veh, PIK3R1 / RFU, HNRNPA1 / Fold change vs veh, HNRNPA1 / RFU, RNF170 / Fold change vs veh, RNF170 / RFU, ZNF28 / Fold change vs veh, ZNF28 / RFU, RNGTT / Fold change vs veh, RNGTT / RFU, OGT / Fold change vs veh, OGT / RFU, BRD1 / Fold change vs veh, BRD1 / RFU, MARS / Fold change vs veh, MARS / RFU, ZNF655 / Fold change vs veh, ZNF655 / RFU, FAHD1 / Fold change vs veh, FAHD1 / RFU, BDP1 / Fold change vs veh, BDP1 / RFU, LRRCC1 / Fold change vs veh, LRRCC1 / RFU, ARID1A / Fold change vs veh, ARID1A / RFU, ZNF146 / Fold change vs veh, ZNF146 / RFU, ZNF330 / Fold change vs veh, ZNF330 / RFU, GPN3 / Fold change vs veh, GPN3 / RFU, C9orf123 / Fold change vs veh, C9orf123 / RFU, N4BP2L2 / Fold change vs veh, N4BP2L2 / RFU, ARFIP1 / Fold change vs veh, ARFIP1 / RFU, FAM179B / Fold change vs veh, FAM179B / RFU, BCL10 / Fold change vs veh, BCL10 / RFU, UHRF1BP1L / Fold change vs veh, UHRF1BP1L / RFU, BET1 / Fold change vs veh, BET1 / RFU, CNOT2 / Fold change vs veh, CNOT2 / RFU, ZNF268 / Fold change vs veh, ZNF268 / Fold change vs veh, ZNF507 / RFU, DGCR2 / Fold change vs veh, DGCR2 / RFU, WDSUB1 / Fold change vs veh, WDSUB1 / Fold change vs veh, HSP90B1 /// MIR3652 / RFU, ADSS / Fold change vs veh, ADSS / RFU, GK / Fold change vs veh, GK / RFU, ZNF148 / Fold change vs veh, ZNF148 / RFU, TAF9 / Fold change vs veh, TAF9 / RFU, SLC1A5 / Fold change vs veh, SLC1A5 / RFU, SLMO2 / Fold change vs veh, SLMO2 / RFU, ABCC4 / Fold change vs veh, ABCC4 / RFU, LOC101060439 /// RAP1B / Fold change vs veh, LOC101060439 /// RAP1B / RFU, RFX7 / Fold change vs veh, RFX7 / RFU, GTPBP10 / Fold change vs veh, GTPBP10 / RFU, CNEP1R1 / Fold change vs veh, CNEP1R1 / RFU, BIVM-ERCC5 /// ERCC5 / Fold change vs veh, BIVM-ERCC5 /// ERCC5 / RFU, ILF3 / Fold change vs veh, ILF3 / RFU 11762660_at / Fold change /veh 11762660_at / RFU VCAN (11757783_s_at) / Fold change /veh VCAN (11757783_s_at) / RFU DDX43 (11728927_at) / Fold change /veh DDX43 (11728927_at) / RFU KRT8 (11758188_x_at) / Fold change /veh KRT8 (11758188_x_at) / RFU NKD1 (11759106_at) / Fold change /veh NKD1 (11759106_at) / RFU SRD5A1 (11742802_a_at) / Fold change /veh SRD5A1 (11742802_a_at) / RFU TPSAB1 /// TPSB2 (11721975_s_at) / Fold change /veh TPSAB1 /// TPSB2 (11721975_s_at) / RFU GSTM3 (11746129_a_at) / Fold change /veh GSTM3 (11746129_a_at) / RFU IL23R (11737362_x_at) / Fold change /veh IL23R (11737362_x_at) / RFU TMEM51 (11727254_a_at) / Fold change /veh TMEM51 (11727254_a_at) / RFU PIWIL2 (11732686_x_at) / Fold change /veh PIWIL2 (11732686_x_at) / RFU ORM1 (11744905_x_at) / Fold change /veh ORM1 (11744905_x_at) / RFU CCDC152 (11743942_at) / Fold change /veh CCDC152 (11743942_at) / RFU ECM1 (11717891_a_at) / Fold change /veh ECM1 (11717891_a_at) / RFU IL23R (11748794_a_at) / Fold change /veh IL23R (11748794_a_at) / RFU TNFAIP8L3 (11732012_x_at) / Fold change /veh TNFAIP8L3 (11732012_x_at) / RFU MBOAT4 (11741988_at) / Fold change /veh MBOAT4 (11741988_at) / RFU 11764193_at / Fold change /veh 11764193_at / RFU TMEM53 (11763286_at) / Fold change /veh TMEM53 (11763286_at) / RFU MAGEB2 (11727129_at) / Fold change /veh MAGEB2 (11727129_at) / RFU TMEM200A (11744735_a_at) / Fold change /veh TMEM200A (11744735_a_at) / RFU CCDC152 (11751479_a_at) / Fold change /veh CCDC152 (11751479_a_at) / RFU FAM211A (11726209_a_at) / Fold change /veh FAM211A (11726209_a_at) / RFU RGS16 (11746705_a_at) / Fold change /veh RGS16 (11746705_a_at) / RFU VCAN (11755009_s_at) / Fold change /veh VCAN (11755009_s_at) / RFU RHOB (11743442_s_at) / Fold change /veh RHOB (11743442_s_at) / RFU RGS16 (11720943_a_at) / Fold change /veh RGS16 (11720943_a_at) / RFU RGS16 (11720944_at) / Fold change /veh RGS16 (11720944_at) / RFU, VPS4B / Fold change vs veh, VPS4B / RFU, CREB1 / Fold change vs veh, CREB1 / RFU, DNAJC13 / Fold change vs veh, DNAJC13 / RFU, GNAQ / Fold change vs veh, GNAQ / RFU, CDK5R1 / Fold change vs veh, CDK5R1 / RFU, ZRANB3 / Fold change vs veh, ZRANB3 / RFU, CUL4A / Fold change vs veh, CUL4A / RFU, CCNY / Fold change vs veh, CCNY / RFU, UFL1 / Fold change vs veh, UFL1 / RFU, COG3 / Fold change vs veh, COG3 / RFU, DIAPH2 / Fold change vs veh, DIAPH2 / RFU, SKA2 / Fold change vs veh, SKA2 / RFU, AFF3 / Fold change vs veh, AFF3 / RFU, LMF1 / Fold change vs veh, LMF1 / RFU, IPO11 / Fold change vs veh, IPO11 / RFU, DFFB / Fold change vs veh, DFFB / RFU, FOXP1 / Fold change vs veh, FOXP1 / RFU, CARD8 / Fold change vs veh, CARD8 / RFU, STRN3 / Fold change vs veh, STRN3 / RFU, ADK / Fold change vs veh, ADK / RFU, RASSF2 / Fold change vs veh, RASSF2 / RFU, WIPF1 / Fold change vs veh, WIPF1 / RFU, LARP1B / Fold change vs veh, LARP1B / RFU, RASA1 / Fold change vs veh, RASA1 / RFU, RB1 / Fold change vs veh, RB1 / RFU, PPFIA1 / Fold change vs veh, PPFIA1 / RFU, MAT2A / Fold change vs veh, MAT2A / RFU, CCT5 / Fold change vs veh, CCT5 / RFU, WDR92 / Fold change vs veh, WDR92 / RFU, CUX1 / Fold change vs veh, CUX1 / RFU, TTC7A / Fold change vs veh, TTC7A / RFU, TMEM135 / Fold change vs veh, TMEM135 / RFU, DEPTOR / Fold change vs veh, DEPTOR / RFU, CPM / Fold change vs veh, CPM / RFU, DNAJB6 / Fold change vs veh, DNAJB6 / RFU, CACNA2D3 / Fold change vs veh, CACNA2D3 / RFU, DTX4 / Fold change vs veh, DTX4 / RFU, TFCP2 / Fold change vs veh, TFCP2 / RFU, GMCL1 /// GMCL1P1 / Fold change vs veh, GMCL1 /// GMCL1P1 / RFU, AEBP2 / Fold change vs veh, AEBP2 / RFU, SNHG1 /// SNORD22 /// SNORD25 /// SNORD26 /// SNORD27 /// SNORD28 /// SNORD29 /// SNORD31 / Fold change vs veh, SNHG1 /// SNORD22 /// SNORD25 /// SNORD26 /// SNORD27 /// SNORD28 /// SNORD29 /// SNORD31 / Fold change (Aza/veh), C12orf56 (ProbeSet 11735607_a_at) / Fold change (ACY-1035/veh), C12orf56 (ProbeSet 11735607_a_at) / Fold change (Aza/veh), FGFR1OP (ProbeSet 11751329_s_at) / Fold change (ACY-1035/veh), FGFR1OP (ProbeSet 11751329_s_at) / Fold change (Aza/veh), VPS36 (ProbeSet 11739960_a_at) / Fold change (ACY-1035/veh), VPS36 (ProbeSet 11739960_a_at) / RFU SYPL1 (11715823_x_at) / Fold change /veh SYPL1 (11715823_x_at) / RFU IGFBP7 (11715501_s_at) / Fold change /veh IGFBP7 (11715501_s_at) / RFU REEP3 (11722064_at) / Fold change /veh REEP3 (11722064_at) / RFU IGLL1 (11728026_x_at) / Fold change /veh IGLL1 (11728026_x_at): dose or concentration left out as unconfirmed
Conditions: ProbeSet 11731583_a_at; LIST D

`Nc1ncn([C@@H]2O[C@H](CO)[C@@H](O)[C@H]2O)c(=O)n1` [azacitidine] was tested, and the “Fold change vs veh, LARP1B” value was 0.75.
